# Assay results as given in publication PMC8998355, “Diversity-Oriented Synthesis Catalyzed by Diethylaminosulfur-Trifluoride—Preparation of New Antitumor Ecdysteroid Derivatives” (International Journal of Molecular Sciences, 2022).
# Key:
# [1] = system: L5178Y mouse T-cell lymphoma cells; assay: MTT cytotoxicity assay (24 h, 1 × 10^4 cells); assay type: cell-based; settings: 24 h MTT, n = 3, read-out: Cytotoxicity (IC50 ± SD)
# Description: (§1) To assess the compounds’ effect on cell growth and viability, we used two different experimental setups of MTT assay. This allowed a comparative evaluation of results obtained from a short-term (24 h) treatment of a relatively higher number (10,000) of cells and those from a long-term (72 h) treatment of a lower cell number (6000), which makes it possible to gain some insight into the cytotoxic vs. cytostatic properties of the compounds. Even though MTT assay is an endpoint detection method, i.e., it provides a single readout of viable cells at the end of the experiment, such a comparison offers a reliable tool to identify antiproliferative activity of compounds that are not cytotoxic.
# (§2) L5178Y mouse T-cell lymphoma cells (ECACC Cat. No. 87111908) were obtained from FDA, Silver Spring, MD, USA. These were transfected with pHa MDR1/A retrovirus as described previously. ABCB1-expressing L5178YMDR cells were selected by culturing the infected cells with colchicine. The cell lines were cultured in McCoy’s 5A medium supplemented with 10% heat inactivated horse serum, 2 mM L-glutamine, and penicillin–streptomycin mixture.
# (§3) MTT assay was performed in 96-well flat-bottomed microtiter plates as described before. Briefly, a 10 mM concentration stock solution in DMSO was prepared for each compound. These were diluted in 100 μL of McCoy’s 5A medium. Subsequently, 1 × 10^4 (cytotoxicity assay) or 6 × 10^3 (antiproliferative assay) T-cell mouse lymphoma cells in 100 μL of medium were added to each well, except for the medium control wells.
# (§4) The culture plates were further incubated at 37 °C for 24 h (cytotoxicity assay) or 72 h (antiproliferative assay); at the end of the incubation period, 20 μL of MTT solution (from a 5 mg/mL stock) was added to each well. After incubation at 37 °C for 4 h, 100 μL of SDS solution (10% in 0.01 M HCI) was added to each well and the plates were further incubated at 37 °C overnight. The cell growth was determined by measuring the optical density at 540 nm (ref. 630 nm) with a Multiscan EX ELISA reader (Thermo Labsystems, Cheshire, WA, USA). IC50 values were calculated by variable slope nonlinear regression using the log(inhibitor) vs. normalized response of GraphPad Prism 5.01 (GraphPad Software Inc., San Diego, CA, USA).
# [2] = system: L5178YMDR cells (ABCB1-expressing); assay: MTT cytotoxicity assay (24 h, 1 × 10^4 cells); assay type: cell-based; settings: Mus musculus, 24 h MTT, n = 3, read-out: Cytotoxicity (IC50 ± SD)
# Description: as §1, §2, §3, §4
# [3] = system: MRC-5 human embryonal lung fibroblasts; assay: MTT antiproliferative assay (72 h); assay type: cell-based; settings: for IC50: Homo sapiens, MRC5, MRC-5, 72 h MTT, n = 3, read-out: Antiproliferative Effect (IC50 ± SD)
# Description: as §1
# (§5) MRC-5 human embryonal lung fibroblasts (CCL-171, ATCC) were acquired from Sigma-Aldrich (Merck, KGaA, Darmstadt, Germany), and were cultured in EMEM medium containing 4.5 g/L glucose and supplemented with a non-essential amino acid mixture, a selection of vitamins, and 10% of FBS.
# (§6) The adherent human fibroblast cells were seeded in 100 μL of EMEM medium overnight before each assay. Two-fold serial dilutions of the compounds (0.19–100 µM) were prepared in separate plates, then transferred to the plates containing the adherent cell lines.
# as §4
# L5178YMDR cells = assay: Combination assay with doxorubicin (checkerboard microplate method, MTT); assay type: cell-based, mouse; parameters: Dm (antilog of the x-intercept of the median-effect plot): unit not given here; settings: for CIavg (weighted average CI): (CI50 + 2CI75 + 3CI90)/6
# Description: Compounds 7, 10, 11, 13, and 14 had sufficient individual antiproliferative properties for their assessment of chemo-sensitizing activity. This was carried out as an antiproliferative assay on L5178YMDR cells in combination with doxorubicin, arranged according to the checkerboard microplate method.
# The checkerboard microplate method was used to evaluate the compounds’ interaction with doxorubicin, as described before. Briefly, doxorubicin (2 mg/mL, Teva Pharmaceuticals, Budapest, Hungary) was serially diluted in the horizontal direction (100 µL per well), and the ecdysteroid was subsequently diluted in the vertical direction (50 µL per well). L5178YMDR cells were re-suspended in culture medium and added to each test well in 50 µL to contain 1 × 10^4 cells per well, and 50 µL of medium was added to the medium control wells. The plates were incubated for 72 h at 37 °C in a CO2 incubator and, at the end of the incubation period, the cell growth was determined by MTT assay as described above. Cell viability data were analyzed by the Calcusyn software using the Chou method, and drug interactions were expressed as combination index (CI) values, in which 0 < CI < 1, CI = 1, and CI > 1 refer to synergism, additivity, and antagonism, respectively.
# [4] = MTT cytotoxicity assay (24 h); assay type: cell-based; settings: human, MRC-5 human embryonal lung fibroblasts; MRC-5, 24 h MTT, n = 3; read-out: Cytotoxicity (IC50 ± SD)
# Description: as §1, §5, §6, §4
# [5] = system: L5178Y mouse T-cell lymphoma cells; assay: MTT antiproliferative assay (72 h, 6 × 10^3 cells); assay type: cell-based; settings: for IC50: Mus musculus
# Description: as §1, §2, §3, §4
# [6] = system: L5178YMDR cells (ABCB1-expressing); assay: MTT antiproliferative assay (72 h, 6 × 10^3 cells); assay type: cell-based; settings: Mus musculus, 72 h MTT, n = 3, read-out: Antiproliferative Effect (IC50 ± SD)
# Description: as §1, §2, §3, §4
# ABCB1 = target: T1, ABCB1 (Homo sapiens, UniProt P08183); assay: ABCB1 inhibition assay (rhodamine 123 accumulation, flow cytometry); assay type: cell-based; settings: human, probe rhodamine 123 (5.2 µM), L5178YMDR, rhodamine 123 accumulation, n = 1
# T1 construct: expressed in transfected cells; host or cells: L5178Y mouse T-cell lymphoma cells transfected with pHa MDR1/A retrovirus, selected with colchicine (L5178YMDR)
# Description: (§7) ABCB1 inhibition was determined by the intracellular accumulation of rhodamin 123 as reported before. Briefly, 2 × 10^6 cells/mL of L5178Y and L5178YMDR cell lines were re-suspended in serum-free McCoy’s 5A medium and distributed in 0.5 mL aliquots into Eppendorf centrifuge tubes. The compounds were added at a final concentration of 2 or 20 μM and the samples were incubated for 10 min at room temperature. Tariquidar was used as positive control and DMSO as negative control; for the latter, no activity was observed. Subsequently, 10 μL (5.2 μM final concentration) of the ABCB1 substrate fluorescent dye rhodamine 123 was added and the cells were incubated further for 20 min at 37 °C, washed twice and re-suspended in 1 mL PBS for analysis. Fluorescence of the cell population was measured with a PartecCyFlow® flow cytometer (Partec, Münster, Germany). Mean fluorescence intensity percentage was calculated for the treated vs. untreated L5178YMDR cells. Inhibition percentage for the treated cells was calculated from the corresponding values of the untreated L5178Y and L5178YMDR cells, representing 100% and 0% inhibition, respectively.
# ABCB1 transporter = target: T2, ABCB1 transporter (Homo sapiens, UniProt P08183); assay: as above; assay type: cell-based; settings: L5178YMDR, 2 or 20 µM
# T2 construct: expressed in transfected cells; host or cells: L5178Y mouse T-cell lymphoma cells transfected with pHa MDR1/A retrovirus, selected with colchicine (L5178YMDR)
# Description: as §7
# [7] = parameters: method as in PMID 34825653; settings: cited from earlier work
# [8] = drug ratio 11.6:1, with doxorubicin
# [9] = drug ratio 23.1:1, with doxorubicin
# [10] = drug ratio 46.4:1, with doxorubicin
# [11] = L5178Y, 72 h MTT, n = 3, read-out: Antiproliferative Effect (IC50 ± SD)
# [12] = drug ratio 23.2:1, with doxorubicin
# [13] = drug ratio 92.8:1, with doxorubicin
# [14] = drug ratio 185.6:1, with doxorubicin
SMILES,IC50 [1] [µM],IC50 [2] [µM],IC50 [3] [µM],CI at ED75 (L5178YMDR cells; [10]),CI at ED90 (L5178YMDR cells; [10]),Dm (antilog of the x-intercept of the median-effect plot) (L5178YMDR cells; [10]),CIavg (weighted average CI) (L5178YMDR cells; [10]),IC50 at 24 h [4] [µM],"IC50 [5, 11] [µM]",IC50 [6] [µM],"inhibition at 20 min, 2 µM (ABCB1) [%]","inhibition at 20 min, 20 µM (ABCB1) [%]",CI at ED75 (L5178YMDR cells; [12]),CI at ED90 (L5178YMDR cells; [12]),Dm (antilog of the x-intercept of the median-effect plot) (L5178YMDR cells; [12]),CIavg (weighted average CI) (L5178YMDR cells; [12]),CI at ED75 (L5178YMDR cells; [13]),CI at ED90 (L5178YMDR cells; [13]),Dm (antilog of the x-intercept of the median-effect plot) (L5178YMDR cells; [13]),CIavg (weighted average CI) (L5178YMDR cells; [13]),also measured
CC(=O)[C@H]1CC[C@@]2(F)C3=CC(=O)[C@@H]4C[C@H]5OC(C)(C)O[C@H]5C[C@]4(C)C3=CC[C@]12C [Compound 7],38.6 ± 1.6,57.5 ± 6.3,> 100,0.84,0.60,11.56,0.78,> 100,15.2 ± 1.9,20 ± 2.4,-0.24,0.29,–,–,–,–,–,–,–,–,CI at ED75 (L5178YMDR cells; [8]): 0.76; CI at ED90 (L5178YMDR cells; [8]): 0.59; Dm (antilog of the x-intercept of the median-effect plot) (L5178YMDR cells; [8]): 4.05; CIavg (weighted average CI) (L5178YMDR cells; [8]): 0.71; CI at ED75 (L5178YMDR cells; [9]): 1.26; CI at ED90 (L5178YMDR cells; [9]): 1.37; Dm (antilog of the x-intercept of the median-effect plot) (L5178YMDR cells; [9]): 7.83; CIavg (weighted average CI) (L5178YMDR cells; [9]): 1.30
CC(=O)N[C@H]1CC=C2C3=CC(=O)[C@@H]4C[C@H]5OC(C)(C)O[C@H]5C[C@]4(C)[C@H]3CC[C@@]21C [Compound 13],> 100,> 100,12 ± 1.9,0.51,0.39,14.17,0.48,35 ± 3.2,4.6 ± 0.8,4.8 ± 0.6,0.09,-0.01,0.55,0.49,8.17,0.53,0.51,0.47,17.54,0.50,"selective antiproliferative activity against both tumor cell lines ([3]; tumor cell lines vs MRC-5): ca. 2.5 times; interaction with doxorubicin, in words (L5178YMDR cells; checkerboard, 72 h): relevant synergism with doxorubicin already at 50% inhibition; CI at ED75 (L5178YMDR cells; [14]): 0.68; CI at ED90 (L5178YMDR cells; [14]): 0.65; Dm (antilog of the x-intercept of the median-effect plot) (L5178YMDR cells; [14]): 29.89; CIavg (weighted average CI) (L5178YMDR cells; [14]): 0.67; IC50 ([5]; text summary for both lymphoma cell lines (L5178Y and L5178YMDR), read-out: antiproliferative activity on the lymphoma cell lines (IC50)): ~4.7 µM; antiproliferative activity stronger than cytotoxicity ([5]; lymphoma cell lines, ratio of cytotoxic to antiproliferative IC50): over 20 times; direct ABCB1 / efflux pump inhibition, in words (ABCB1 transporter): inactive"
CC(C)(O)CC[C@@H](O)[C@](C)(O)[C@H]1CC[C@@]2(O)C3=CC(=O)[C@@H]4C[C@@H](O)[C@@H](O)C[C@]4(C)[C@H]3CC[C@]12C [20-hydroxyecdysone],–,–,–,–,–,–,–,–,–,–,–,–,–,–,–,–,–,–,–,–,"MasR activity, in words [7]: agonist"
CC(=O)[C@H]1CC=C2C3=CC(=O)[C@@H]4C[C@H]5OC(C)(C)O[C@H]5C[C@]4(C)[C@H]3CC[C@@]21C [Compound 10],72.9 ± 5.6,83 ± 5,> 100,0.51,0.30,10.99,0.46,> 100,27.7 ± 0.6,42.3 ± 1.5,-0.38,-0.16,0.50,0.33,6.50,0.46,0.55,0.35,14.02,0.50,CI at ED75 (L5178YMDR cells; [14]): 0.61; CI at ED90 (L5178YMDR cells; [14]): 0.36; Dm (antilog of the x-intercept of the median-effect plot) (L5178YMDR cells; [14]): 19.47; CIavg (weighted average CI) (L5178YMDR cells; [14]): 0.55
